# Molecular target: RAC-alpha serine/threonine-protein kinase (Homo sapiens, UniProt P31749)
# Assay: TR-FRET assay: For the assay 50 nl of a 100fold concentrated solution of the test compound in DMSO was pipetted into a black low volume 384well microtiter plate (Greiner Bio- One, Frickenhausen, Germany), 2 ul of a solution of Akt1 in assay buffer [50 mM TRIS/HCI pH 7.5, 5 mM MgCI2, 1 mM dithiothreitol, 0.02% (v/v) Triton X-100 (Sigma)] were added and the mixture was incubated for 15 min at 22 C to allow pre-binding of the test compounds to the enzyme before the start of the kinase reaction. Then the kinase reaction was started by the addition of 3 ul of a solution of adenosine-tri-phosphate (ATP, 16.7 ul => final cone, in the 5 ul assay volume is 10 ul) and substrate (1 .67 ul => final cone, in the 5 ul assay volume is 1 ul) in assay buffer and the resulting mixture was incubated for a reaction time of 60 min at 22 C. The concentration of Akt1 in the assay was adjusted depending of the activity of the enzyme lot.
# Chain of RAC-alpha serine/threonine-protein kinase (P31749 whole entry): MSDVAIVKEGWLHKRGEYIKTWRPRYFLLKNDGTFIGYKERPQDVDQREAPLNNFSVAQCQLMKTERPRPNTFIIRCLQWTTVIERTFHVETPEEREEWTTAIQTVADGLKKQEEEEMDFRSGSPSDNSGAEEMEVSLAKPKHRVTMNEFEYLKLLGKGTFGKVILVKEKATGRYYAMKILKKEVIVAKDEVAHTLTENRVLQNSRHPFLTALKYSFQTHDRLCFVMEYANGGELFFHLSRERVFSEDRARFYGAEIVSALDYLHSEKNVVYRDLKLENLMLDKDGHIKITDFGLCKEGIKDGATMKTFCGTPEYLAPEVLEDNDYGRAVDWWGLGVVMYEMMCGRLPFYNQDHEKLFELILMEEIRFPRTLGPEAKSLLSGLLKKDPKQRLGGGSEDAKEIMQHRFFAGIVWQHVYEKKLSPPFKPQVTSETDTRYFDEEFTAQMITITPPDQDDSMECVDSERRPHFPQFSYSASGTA
row,SMILES,IC50
1,NC1(c2ccc(-c3nc4c5cc(F)ccc5nn4cc3-c3ccccc3)cc2)CCC1,93 nM
2,N#Cc1cccc(-c2ccc3nn4cc(-c5ccccc5)c(-c5ccc(C6(N)CCC6)cc5)nc4c3c2)c1,67 nM
3,NC1(c2ccc(-c3nc4c5cc(-c6ccc(F)cc6)ccc5nn4cc3-c3ccccc3)cc2)CCC1,110 nM
4,N#Cc1ccc(-c2cccc3nn4cc(-c5ccccc5)c(-c5ccc(C6(N)CCC6)cc5)nc4c23)cc1,320 nM
5,N#Cc1cccc(-c2cccc3c2nn2cc(-c4ccccc4)c(-c4ccc(C5(N)CCC5)cc4)nc32)c1,10000 nM
6,N#Cc1cccc2c1nn1cc(-c3ccccc3)c(-c3ccc(C4(N)CCC4)cc3)nc21,49 nM
7,NC1(c2ccc(-c3nc4c5cccc(O)c5nn4cc3-c3ccccc3)cc2)CCC1,100 nM

# Reference: ChEMBL document CHEMBL3639046, “Substituted pyrimido[1,2-b]indazoles and their use as modulators of the Pi3K/Akt pathway” (2015)
